Data on 3 molecules can be found in the kinase profiling compilation of Christmann-Franck et al. (2016).

The structures appear in SMILES notation.

Chain of DCLK2 (human) (Q8N568 whole entry, looked up): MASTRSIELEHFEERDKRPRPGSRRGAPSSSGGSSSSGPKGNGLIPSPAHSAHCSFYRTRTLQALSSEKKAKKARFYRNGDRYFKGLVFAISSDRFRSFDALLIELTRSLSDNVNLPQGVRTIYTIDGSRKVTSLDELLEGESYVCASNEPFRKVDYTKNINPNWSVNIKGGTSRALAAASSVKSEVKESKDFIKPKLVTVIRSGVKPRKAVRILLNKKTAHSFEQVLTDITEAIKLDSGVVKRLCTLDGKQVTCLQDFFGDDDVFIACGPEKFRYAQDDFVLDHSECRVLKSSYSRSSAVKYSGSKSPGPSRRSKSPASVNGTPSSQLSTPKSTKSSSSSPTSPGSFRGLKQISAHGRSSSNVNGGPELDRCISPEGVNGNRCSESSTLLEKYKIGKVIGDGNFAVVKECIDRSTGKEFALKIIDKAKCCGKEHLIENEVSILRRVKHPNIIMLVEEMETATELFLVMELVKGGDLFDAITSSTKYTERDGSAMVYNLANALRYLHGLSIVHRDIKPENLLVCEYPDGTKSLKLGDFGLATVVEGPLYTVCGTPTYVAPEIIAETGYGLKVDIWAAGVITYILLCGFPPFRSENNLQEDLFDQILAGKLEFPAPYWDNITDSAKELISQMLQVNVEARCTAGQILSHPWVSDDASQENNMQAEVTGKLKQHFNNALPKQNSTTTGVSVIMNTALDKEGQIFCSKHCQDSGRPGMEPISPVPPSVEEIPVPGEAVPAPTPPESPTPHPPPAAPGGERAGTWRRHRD
Chain of PRKCB1 (human) (P05771 whole entry, looked up): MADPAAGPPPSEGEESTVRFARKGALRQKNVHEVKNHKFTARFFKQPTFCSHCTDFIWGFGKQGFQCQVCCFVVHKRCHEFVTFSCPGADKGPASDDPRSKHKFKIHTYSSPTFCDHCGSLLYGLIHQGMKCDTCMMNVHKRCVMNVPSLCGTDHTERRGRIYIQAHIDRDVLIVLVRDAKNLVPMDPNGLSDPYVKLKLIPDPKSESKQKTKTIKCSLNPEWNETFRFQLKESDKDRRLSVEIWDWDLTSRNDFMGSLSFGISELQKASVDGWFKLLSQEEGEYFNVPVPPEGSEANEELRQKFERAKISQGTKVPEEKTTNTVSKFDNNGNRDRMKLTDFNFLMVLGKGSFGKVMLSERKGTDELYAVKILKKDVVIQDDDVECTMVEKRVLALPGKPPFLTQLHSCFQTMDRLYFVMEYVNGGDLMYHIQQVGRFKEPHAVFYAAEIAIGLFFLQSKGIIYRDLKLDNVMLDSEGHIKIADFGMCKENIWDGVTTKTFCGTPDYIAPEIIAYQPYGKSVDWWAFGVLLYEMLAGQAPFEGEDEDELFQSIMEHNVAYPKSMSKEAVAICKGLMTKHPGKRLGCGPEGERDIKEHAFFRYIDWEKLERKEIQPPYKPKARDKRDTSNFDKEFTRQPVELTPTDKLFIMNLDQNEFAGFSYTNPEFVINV

The first assay deals with JAK1 JH1 catalytic (human) (UniProt P23458). Nature of the assay: radiometric filter-binding kinase assay, Kinase HotSpot. Particulars: compound 0.5 µM; ATP 10 µM.
`CC#CC(=O)Nc1cc2c(Nc3ccc(F)c(Cl)c3)ncnc2cn1`: the residual activity stood at 104%.

Turning to `Cc1ccc(S(=O)(=O)/C=C/C#N)cc1`, the residual activity worked out at 98.2%.

Regarding `Cc1ccc(NC2=CC(=O)c3sc(C)nc3C2=O)cc1`, the residual activity is 95.1%.

For another assay, the target named is FGFR4 (human) (UniProt P22455). The assay is described as above. Conditions: compound 0.5 µM; ATP 10 µM.
Chain of FGFR4 (human) (P22455 whole entry, looked up): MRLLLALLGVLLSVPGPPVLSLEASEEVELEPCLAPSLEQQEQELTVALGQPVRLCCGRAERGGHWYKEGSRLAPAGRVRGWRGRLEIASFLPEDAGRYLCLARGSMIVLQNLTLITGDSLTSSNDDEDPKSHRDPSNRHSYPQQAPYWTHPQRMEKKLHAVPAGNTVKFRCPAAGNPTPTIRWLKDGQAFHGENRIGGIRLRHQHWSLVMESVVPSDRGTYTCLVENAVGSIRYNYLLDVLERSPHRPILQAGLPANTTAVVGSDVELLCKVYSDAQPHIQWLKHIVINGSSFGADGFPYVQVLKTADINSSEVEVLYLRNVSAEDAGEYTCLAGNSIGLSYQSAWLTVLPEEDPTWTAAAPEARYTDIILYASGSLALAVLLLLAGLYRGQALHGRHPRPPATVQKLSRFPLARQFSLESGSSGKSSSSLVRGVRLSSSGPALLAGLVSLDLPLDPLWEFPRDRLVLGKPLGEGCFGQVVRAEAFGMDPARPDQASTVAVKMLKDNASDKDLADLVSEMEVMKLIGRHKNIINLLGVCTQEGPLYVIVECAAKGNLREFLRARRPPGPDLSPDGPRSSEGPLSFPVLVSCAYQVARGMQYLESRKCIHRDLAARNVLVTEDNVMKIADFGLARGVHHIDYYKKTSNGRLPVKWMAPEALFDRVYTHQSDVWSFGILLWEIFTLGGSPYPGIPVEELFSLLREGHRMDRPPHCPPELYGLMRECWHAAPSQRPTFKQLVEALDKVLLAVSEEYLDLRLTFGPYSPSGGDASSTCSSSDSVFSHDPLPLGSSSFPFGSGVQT
For `CC#CC(=O)Nc1cc2c(Nc3ccc(F)c(Cl)c3)ncnc2cn1`, the residual activity was determined as 102%.

As for `Cc1ccc(S(=O)(=O)/C=C/C#N)cc1`, the residual activity was 94.3%.

On to `Cc1ccc(NC2=CC(=O)c3sc(C)nc3C2=O)cc1`, for which the residual activity amounted to 86.7%.

The next assay has as its target RPS6KA5 KD2 (human) (UniProt O75582). Described as above. Conditions: compound 0.5 µM; ATP 10 µM.
Regarding `CC#CC(=O)Nc1cc2c(Nc3ccc(F)c(Cl)c3)ncnc2cn1`, the residual activity was determined as 103%.

As for `Cc1ccc(S(=O)(=O)/C=C/C#N)cc1`, the residual activity turned out to be 109%.

Turning to `Cc1ccc(NC2=CC(=O)c3sc(C)nc3C2=O)cc1`, the residual activity came to 87.7%.

A further assay deals with TNK2 (human) (UniProt Q07912). The assay is described as above. Particulars: compound 0.5 µM; ATP 10 µM.
For the molecule `CC#CC(=O)Nc1cc2c(Nc3ccc(F)c(Cl)c3)ncnc2cn1`, the residual activity is 95.1%.

As for `Cc1ccc(S(=O)(=O)/C=C/C#N)cc1`, the residual activity turned out to be 94.9%.

In the case of `Cc1ccc(NC2=CC(=O)c3sc(C)nc3C2=O)cc1`, the residual activity is 94.3%.

The target of another assay is RPS6KA2 KD1 KD2 (human) (UniProt Q15349). The description is as above. Particulars: compound 0.5 µM; ATP 10 µM.
As for `CC#CC(=O)Nc1cc2c(Nc3ccc(F)c(Cl)c3)ncnc2cn1`, the residual activity was 105%.

`Cc1ccc(S(=O)(=O)/C=C/C#N)cc1`: the residual activity is 100%.

For the molecule `Cc1ccc(NC2=CC(=O)c3sc(C)nc3C2=O)cc1`, the residual activity is 82.5%.

For the next assay, the target named is EPHA4 (human) (UniProt P54764). The assay is described as above. Conditions: compound 0.5 µM; ATP 10 µM.
As to `CC#CC(=O)Nc1cc2c(Nc3ccc(F)c(Cl)c3)ncnc2cn1`, the residual activity was determined as 94.6%.

For `Cc1ccc(S(=O)(=O)/C=C/C#N)cc1`, the residual activity amounted to 86.1%.

On to `Cc1ccc(NC2=CC(=O)c3sc(C)nc3C2=O)cc1`, for which the residual activity was 86.5%.

The next assay has as its target CSNK2A1 (human) (UniProt P68400). The description is as above. Conditions: compound 0.5 µM; ATP 10 µM.
`CC#CC(=O)Nc1cc2c(Nc3ccc(F)c(Cl)c3)ncnc2cn1`: the residual activity turned out to be 90.9%.

`Cc1ccc(S(=O)(=O)/C=C/C#N)cc1`: the residual activity was found to be 94.3%.

Turning to `Cc1ccc(NC2=CC(=O)c3sc(C)nc3C2=O)cc1`, the residual activity was 98.2%.

A further assay concerns the target PRKCB1 (human) (UniProt P05771). The description is as above. Particulars: compound 0.5 µM; ATP 10 µM.
As to `CC#CC(=O)Nc1cc2c(Nc3ccc(F)c(Cl)c3)ncnc2cn1`, the residual activity was found to be 97.4%.

Regarding `Cc1ccc(S(=O)(=O)/C=C/C#N)cc1`, the residual activity came to 101%.

`Cc1ccc(NC2=CC(=O)c3sc(C)nc3C2=O)cc1`: the residual activity worked out at 95.7%.

In another assay the target is STK17A (human) (UniProt Q9UEE5). The assay is described as above. Conditions: compound 0.5 µM; ATP 10 µM.
Take `CC#CC(=O)Nc1cc2c(Nc3ccc(F)c(Cl)c3)ncnc2cn1`: the residual activity is 92.9%.

Regarding `Cc1ccc(S(=O)(=O)/C=C/C#N)cc1`, the residual activity was 97.8%.

On to `Cc1ccc(NC2=CC(=O)c3sc(C)nc3C2=O)cc1`, for which the residual activity amounted to 93.7%.

The target in another assay is DYRK3 (human) (UniProt O43781). Described as above. Conditions: compound 0.5 µM; ATP 10 µM.
Chain of DYRK3 (human) (O43781 whole entry, looked up): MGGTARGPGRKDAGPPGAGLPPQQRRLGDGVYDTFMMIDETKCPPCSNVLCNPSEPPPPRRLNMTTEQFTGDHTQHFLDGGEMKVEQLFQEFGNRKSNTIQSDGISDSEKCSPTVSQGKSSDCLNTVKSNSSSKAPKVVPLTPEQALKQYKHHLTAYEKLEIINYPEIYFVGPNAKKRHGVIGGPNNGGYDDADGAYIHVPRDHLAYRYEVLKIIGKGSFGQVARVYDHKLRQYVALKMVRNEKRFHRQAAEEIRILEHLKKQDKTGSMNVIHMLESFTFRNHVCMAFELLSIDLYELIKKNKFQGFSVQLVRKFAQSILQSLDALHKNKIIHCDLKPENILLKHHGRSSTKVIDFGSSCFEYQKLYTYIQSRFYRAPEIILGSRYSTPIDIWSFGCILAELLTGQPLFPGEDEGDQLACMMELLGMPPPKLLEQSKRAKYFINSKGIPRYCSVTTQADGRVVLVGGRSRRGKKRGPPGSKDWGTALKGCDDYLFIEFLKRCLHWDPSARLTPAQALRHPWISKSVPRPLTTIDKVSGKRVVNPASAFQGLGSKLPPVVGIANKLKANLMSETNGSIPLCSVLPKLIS
Take `CC#CC(=O)Nc1cc2c(Nc3ccc(F)c(Cl)c3)ncnc2cn1`: the residual activity came out at 101%.

As to `Cc1ccc(S(=O)(=O)/C=C/C#N)cc1`, the residual activity is 101%.

In the case of `Cc1ccc(NC2=CC(=O)c3sc(C)nc3C2=O)cc1`, the residual activity stood at 96.2%.

For a further assay, the target named is NLK (human) (UniProt Q9UBE8). Described as above. Conditions: compound 0.5 µM; ATP 10 µM.
As to `CC#CC(=O)Nc1cc2c(Nc3ccc(F)c(Cl)c3)ncnc2cn1`, the residual activity amounted to 99.7%.

Turning to `Cc1ccc(S(=O)(=O)/C=C/C#N)cc1`, the residual activity came out at 99.2%.

For `Cc1ccc(NC2=CC(=O)c3sc(C)nc3C2=O)cc1`, the residual activity was 107%.

The target in a further assay is MAP3K8 (human) (UniProt P41279). The description is as above. Conditions: compound 0.5 µM; ATP 10 µM.
Chain of MAP3K8 (human) (P41279 whole entry, looked up): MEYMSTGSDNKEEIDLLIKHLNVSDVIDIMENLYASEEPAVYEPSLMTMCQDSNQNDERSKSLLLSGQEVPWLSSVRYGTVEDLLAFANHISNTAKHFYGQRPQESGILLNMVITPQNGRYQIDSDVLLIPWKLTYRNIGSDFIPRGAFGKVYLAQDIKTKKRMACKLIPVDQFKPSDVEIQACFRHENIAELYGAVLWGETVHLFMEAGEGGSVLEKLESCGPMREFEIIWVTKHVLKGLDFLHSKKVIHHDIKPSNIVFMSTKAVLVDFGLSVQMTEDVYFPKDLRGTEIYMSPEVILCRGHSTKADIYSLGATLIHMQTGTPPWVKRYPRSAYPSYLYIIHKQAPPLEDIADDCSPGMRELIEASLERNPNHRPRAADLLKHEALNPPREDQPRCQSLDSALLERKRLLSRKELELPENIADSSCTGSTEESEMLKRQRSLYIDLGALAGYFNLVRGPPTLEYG
For the molecule `CC#CC(=O)Nc1cc2c(Nc3ccc(F)c(Cl)c3)ncnc2cn1`, the residual activity came to 94.2%.

In the case of `Cc1ccc(S(=O)(=O)/C=C/C#N)cc1`, the residual activity came out at 96.2%.

Consider `Cc1ccc(NC2=CC(=O)c3sc(C)nc3C2=O)cc1`, for which the residual activity stood at 90.2%.

Another assay deals with TEK (human) (UniProt Q02763). The description is as above. Particulars: compound 0.5 µM; ATP 10 µM.
As to `CC#CC(=O)Nc1cc2c(Nc3ccc(F)c(Cl)c3)ncnc2cn1`, the residual activity is 99.7%.

In the case of `Cc1ccc(S(=O)(=O)/C=C/C#N)cc1`, the residual activity was found to be 101%.

As to `Cc1ccc(NC2=CC(=O)c3sc(C)nc3C2=O)cc1`, the residual activity amounted to 95.9%.

The target in another assay is PAK2 (human) (UniProt Q13177). The description is as above. Conditions: compound 0.5 µM; ATP 10 µM.
As to `CC#CC(=O)Nc1cc2c(Nc3ccc(F)c(Cl)c3)ncnc2cn1`, the residual activity is 105%.

For the molecule `Cc1ccc(S(=O)(=O)/C=C/C#N)cc1`, the residual activity was determined as 102%.

Turning to `Cc1ccc(NC2=CC(=O)c3sc(C)nc3C2=O)cc1`, the residual activity worked out at 104%.

A further assay has as its target DCLK2 (human) (UniProt Q8N568). Described as above. Particulars: compound 0.5 µM; ATP 10 µM.
Turning to `CC#CC(=O)Nc1cc2c(Nc3ccc(F)c(Cl)c3)ncnc2cn1`, the residual activity was found to be 102%.

With `Cc1ccc(S(=O)(=O)/C=C/C#N)cc1`, the residual activity was found to be 96.1%.

In the case of `Cc1ccc(NC2=CC(=O)c3sc(C)nc3C2=O)cc1`, the residual activity is 95.3%.

The target in a further assay is CAMK4 (human) (UniProt Q16566). The assay is described as above. Conditions: compound 0.5 µM; ATP 10 µM.
Chain of CAMK4 (human) (Q16566 whole entry, looked up): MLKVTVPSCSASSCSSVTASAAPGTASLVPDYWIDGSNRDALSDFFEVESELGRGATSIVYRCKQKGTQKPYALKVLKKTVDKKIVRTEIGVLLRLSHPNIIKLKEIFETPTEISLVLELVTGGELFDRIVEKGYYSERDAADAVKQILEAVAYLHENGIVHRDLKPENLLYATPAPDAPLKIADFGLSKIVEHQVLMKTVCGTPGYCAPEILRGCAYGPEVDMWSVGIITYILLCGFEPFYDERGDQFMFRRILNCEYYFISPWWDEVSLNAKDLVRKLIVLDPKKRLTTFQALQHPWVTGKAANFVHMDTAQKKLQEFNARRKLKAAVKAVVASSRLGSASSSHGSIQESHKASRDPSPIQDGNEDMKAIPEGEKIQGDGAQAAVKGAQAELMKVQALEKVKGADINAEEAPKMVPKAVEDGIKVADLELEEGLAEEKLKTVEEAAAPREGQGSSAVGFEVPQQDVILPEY
Consider `CC#CC(=O)Nc1cc2c(Nc3ccc(F)c(Cl)c3)ncnc2cn1`, for which the residual activity stood at 97.4%.

Take `Cc1ccc(S(=O)(=O)/C=C/C#N)cc1`: the residual activity amounted to 96.4%.

With `Cc1ccc(NC2=CC(=O)c3sc(C)nc3C2=O)cc1`, the residual activity was 98.5%.

The next assay addresses CHEK2 (human) (UniProt O96017). The description is as above. Particulars: compound 0.5 µM; ATP 10 µM.
For the molecule `CC#CC(=O)Nc1cc2c(Nc3ccc(F)c(Cl)c3)ncnc2cn1`, the residual activity stood at 98.8%.

Turning to `Cc1ccc(S(=O)(=O)/C=C/C#N)cc1`, the residual activity came out at 107%.

`Cc1ccc(NC2=CC(=O)c3sc(C)nc3C2=O)cc1`: the residual activity came to 100%.

The target of another assay is AKT1 (human) (UniProt P31749). The description is as above. Particulars: compound 0.5 µM; ATP 10 µM.
Chain of AKT1 (human) (P31749 whole entry, looked up): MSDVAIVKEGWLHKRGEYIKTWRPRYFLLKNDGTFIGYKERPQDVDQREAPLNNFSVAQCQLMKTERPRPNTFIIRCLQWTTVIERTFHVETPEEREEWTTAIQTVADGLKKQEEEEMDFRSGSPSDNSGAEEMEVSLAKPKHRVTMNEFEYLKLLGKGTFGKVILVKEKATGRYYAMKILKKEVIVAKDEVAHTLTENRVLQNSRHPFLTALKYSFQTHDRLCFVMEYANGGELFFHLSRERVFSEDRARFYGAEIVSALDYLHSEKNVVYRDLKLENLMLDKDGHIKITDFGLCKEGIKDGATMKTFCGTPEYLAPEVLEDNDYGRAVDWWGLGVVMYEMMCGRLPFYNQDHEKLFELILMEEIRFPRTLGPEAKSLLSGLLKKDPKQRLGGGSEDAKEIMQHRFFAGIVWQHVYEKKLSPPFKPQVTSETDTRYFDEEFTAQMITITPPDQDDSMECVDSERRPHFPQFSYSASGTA
Take `CC#CC(=O)Nc1cc2c(Nc3ccc(F)c(Cl)c3)ncnc2cn1`: the residual activity came to 98.1%.

Consider `Cc1ccc(S(=O)(=O)/C=C/C#N)cc1`, for which the residual activity was found to be 112%.

As to `Cc1ccc(NC2=CC(=O)c3sc(C)nc3C2=O)cc1`, the residual activity was 83.3%.

In the next assay the target is MAP3K3 (human) (UniProt Q99759). The assay is described as above. Conditions: compound 0.5 µM; ATP 10 µM.
Chain of MAP3K3 (human) (Q99759 whole entry, looked up): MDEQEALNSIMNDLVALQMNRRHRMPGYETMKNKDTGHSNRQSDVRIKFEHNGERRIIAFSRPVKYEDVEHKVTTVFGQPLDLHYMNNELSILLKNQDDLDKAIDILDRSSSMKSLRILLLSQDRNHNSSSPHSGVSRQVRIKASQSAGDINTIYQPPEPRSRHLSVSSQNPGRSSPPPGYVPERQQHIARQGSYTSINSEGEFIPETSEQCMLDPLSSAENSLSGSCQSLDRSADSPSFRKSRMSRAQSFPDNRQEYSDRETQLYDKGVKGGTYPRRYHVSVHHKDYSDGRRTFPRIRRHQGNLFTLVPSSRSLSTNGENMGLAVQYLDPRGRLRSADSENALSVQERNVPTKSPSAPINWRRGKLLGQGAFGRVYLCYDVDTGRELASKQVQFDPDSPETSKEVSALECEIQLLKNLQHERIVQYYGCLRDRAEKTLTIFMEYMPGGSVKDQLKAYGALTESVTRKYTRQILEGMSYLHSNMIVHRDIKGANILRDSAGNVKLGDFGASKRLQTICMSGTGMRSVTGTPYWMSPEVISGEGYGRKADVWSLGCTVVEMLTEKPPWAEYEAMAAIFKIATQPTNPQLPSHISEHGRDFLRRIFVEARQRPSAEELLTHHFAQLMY
Take `CC#CC(=O)Nc1cc2c(Nc3ccc(F)c(Cl)c3)ncnc2cn1`: the residual activity is 107%.

With `Cc1ccc(S(=O)(=O)/C=C/C#N)cc1`, the residual activity was 98.1%.

As to `Cc1ccc(NC2=CC(=O)c3sc(C)nc3C2=O)cc1`, the residual activity amounted to 120%.

Another assay concerns the target HIPK4 (human) (UniProt Q8NE63). The assay is described as above. Particulars: compound 0.5 µM; ATP 10 µM.
As for `CC#CC(=O)Nc1cc2c(Nc3ccc(F)c(Cl)c3)ncnc2cn1`, the residual activity turned out to be 99.7%.

Regarding `Cc1ccc(S(=O)(=O)/C=C/C#N)cc1`, the residual activity is 108%.

As for `Cc1ccc(NC2=CC(=O)c3sc(C)nc3C2=O)cc1`, the residual activity stood at 93.7%.

Another assay concerns the target ACVRL1 (human) (UniProt P37023). The description is as above. Conditions: compound 0.5 µM; ATP 10 µM.
In the case of `CC#CC(=O)Nc1cc2c(Nc3ccc(F)c(Cl)c3)ncnc2cn1`, the residual activity was found to be 101%.
